Laboratory results taken from patent US8030498B2, “Benzoylpyrazole compounds and herbicides containing them” (Ishihara Sangyo Kaisha, Ltd., priority 2005, dated 2011).

Tests used:
[1] = test system: velvetleaf; assay: Test Example 2: soil application on the day after sowing, growth inhibition rate, velvetleaf; type: in vivo, Abutilon theophrasti MEDIC.; conditions: 250 g/ha active ingredient, observed on 19th to 24th day
How it was run: (§1)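 Seeds were sown in upland field soil in pots, and on the following day compounds formulated as wettable powders or emulsifiable concentrates were diluted in water (500 liter per hectare) and sprayed onto the soil at prescribed active-ingredient doses. Growth was scored visually 19–24 days later, 0 = untreated to 100% = complete kill.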

[2] = test system: soybean (Glycine max Merr.); assay: Test Example 1: foliar treatment, growth inhibition rate, soybean; type: in vivo; conditions: visually observed 17th to 23rd day after application
How it was run: (§2)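 Visual scoring of growth inhibition, 0% (untreated) to 100% (complete kill), on days 17–23 following post-emergence spray of formulated compound in water (500 L/ha, 0.1 vol % spreader); plants treated at set leaf stages, e.g. corn 2.0–3.5, wheat 1.7–3.4.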

[3] = test system: crabgrass (Digitaria sanguinalis L.); assay: Test Example 1: foliar treatment, growth inhibition rate, crabgrass; type: in vivo; conditions: visually observed 17th to 23rd day after application
How it was run: as §2

[4] = test system: barnyardgrass (Echinochloa crus-galli L.); assay: Test Example 1: foliar treatment, growth inhibition rate, barnyardgrass; type: in vivo; conditions: visually observed 17th to 23rd day after application
How it was run: (§3)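 Potted upland soil; compounds as wettable powders or emulsifiable concentrates diluted in water at 500 L/ha plus 0.1 vol % spreader, foliar-sprayed at defined leaf stages (rice 1.0–2.5, wheat 1.7–3.4, corn 2.0–3.5, greenfoxtail 1.0–3.0). Growth inhibition (0–100%) scored visually 17–23 days after application.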

[5] = test system: corn; assay: Test Example 2: soil application on the day after sowing, growth inhibition rate, corn; type: in vivo, Zea mays L.; conditions: 250 g/ha active ingredient, observed on 19th to 24th day
How it was run: as §1

[6] = test system: soybean; assay: Test Example 2: soil application on the day after sowing, growth inhibition rate, soybean; type: in vivo, Glycine max Merr.; conditions: 250 g/ha active ingredient, observed on 19th to 24th day
How it was run: as §1

[7] = test system: greenfoxtail; assay: Test Example 2: soil application on the day after sowing, growth inhibition rate, greenfoxtail; type: in vivo, Setaria viridis L.; conditions: 250 g/ha active ingredient, observed on 19th to 24th day
How it was run: as §1

[8] = test system: velvetleaf (Abutilon theophrasti MEDIC.); assay: Test Example 1: foliar treatment, growth inhibition rate, velvetleaf; type: in vivo; conditions: visually observed 17th to 23rd day after application
How it was run: as §3

[9] = test system: prickly sida; assay: Test Example 2: soil application on the day after sowing, growth inhibition rate, prickly sida; type: in vivo, Sida spinosa L.; conditions: 250 g/ha active ingredient, observed on 19th to 24th day
How it was run: as §1

[10] = test system: barnyardgrass; assay: Test Example 2: soil application on the day after sowing, growth inhibition rate, barnyardgrass; type: in vivo, Echinochloa crus-galli L.; conditions: 250 g/ha active ingredient, observed on 19th to 24th day
How it was run: as §1

[11] = test system: prickly sida (Sida spinosa L.); assay: Test Example 1: foliar treatment, growth inhibition rate, prickly sida; type: in vivo; conditions: visually observed 17th to 23rd day after application
How it was run: as §2

[12] = test system: rice (Oryza sativa L.); assay: Test Example 1: foliar treatment, growth inhibition rate, rice; type: in vivo; conditions: visually observed 17th to 23rd day after application
How it was run: (§4)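 Post-emergence foliar spray, pot test; WP/EC formulation in water at 500 L/ha, + 0.1 vol % spreader; leaf stage at treatment: corn 2.0–3.5, green foxtail 1.0–3.0, rice 1.0–2.5, wheat 1.7–3.4; visual % inhibition at 17–23 DAT (0 = untreated, 100 = dead).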

[13] = test system: redroot pigweed; assay: Test Example 2: soil application on the day after sowing, growth inhibition rate, redroot pigweed; type: in vivo, Amaranthus retroflexus L.; conditions: 250 g/ha active ingredient, observed on 19th to 24th day
How it was run: as §1

[14] = test system: crabgrass; assay: Test Example 2: soil application on the day after sowing, growth inhibition rate, crabgrass; type: in vivo, Digitaria sanguinalis L.; conditions: 250 g/ha active ingredient, observed on 19th to 24th day
How it was run: as §1

[15] = test system: greenfoxtail (Setaria viridis L.); assay: Test Example 1: foliar treatment, growth inhibition rate, greenfoxtail; type: in vivo; conditions: visually observed 17th to 23rd day after application
How it was run: as §4

[16] = test system: rice; assay: Test Example 2: soil application on the day after sowing, growth inhibition rate, rice; type: in vivo, Oryza sativa L.; conditions: 250 g/ha active ingredient, observed on 19th to 24th day
How it was run: as §1

[17] = test system: wheat (Triticum spp.); assay: Test Example 1: foliar treatment, growth inhibition rate, wheat; type: in vivo; conditions: visually observed 17th to 23rd day after application
How it was run: as §4

[18] = test system: corn (Zea mays L.); assay: Test Example 1: foliar treatment, growth inhibition rate, corn; type: in vivo; conditions: visually observed 17th to 23rd day after application
How it was run: as §4

[19] = test system: redroot pigweed (Amaranthus retroflexus L.); assay: Test Example 1: foliar treatment, growth inhibition rate, redroot pigweed; type: in vivo; conditions: visually observed 17th to 23rd day after application
How it was run: as §2

[20] = test system: wheat; assay: Test Example 2: soil application on the day after sowing, growth inhibition rate, wheat; type: in vivo, Triticum spp.; conditions: 250 g/ha active ingredient, observed on 19th to 24th day
How it was run: as §1

Row | SMILES | Growth inhibition rate (%) Velvetleaf [1] [%] | Growth inhibition rate (%) Soybean ([2]; 31 g/ha active ingredient) [%] | Growth inhibition rate (%) Crabgrass ([3]; 31 g/ha active ingredient) [%] | Growth inhibition rate (%) Barnyardgrass ([4]; 31 g/ha active ingredient) [%] | Growth inhibition rate (%) Corn [5] [%] | Growth inhibition rate (%) Soybean [6] [%] | Growth inhibition rate (%) Greenfoxtail [7] [%] | Growth inhibition rate (%) Velvetleaf ([8]; 31 g/ha active ingredient) [%] | Growth inhibition rate (%) Prickly sida [9] [%] | Growth inhibition rate (%) Barnyardgrass [10] [%] | Growth inhibition rate (%) Prickly sida ([11]; 31 g/ha active ingredient) [%] | Growth inhibition rate (%) Rice ([12]; 31 g/ha active ingredient) [%] | Growth inhibition rate (%) redroot pigweed [13] [%] | Growth inhibition rate (%) Crabgrass [14] [%] | Growth inhibition rate (%) Greenfoxtail ([15]; 31 g/ha active ingredient) [%] | Growth inhibition rate (%) Rice [16] [%] | Growth inhibition rate (%) Wheat ([17]; 31 g/ha active ingredient) [%] | Growth inhibition rate (%) Corn ([18]; 31 g/ha active ingredient) [%] | Growth inhibition rate (%) redroot pigweed ([19]; 31 g/ha active ingredient) [%] | Growth inhibition rate (%) Wheat [20] [%] | also measured
1 | CCn1ncc(C(=O)c2ccc(S(C)(=O)=O)c(C(=O)OC)c2Cl)c1OC(=O)SC [compound 97] | 100 | 80 | 70 | 100 | 0 | 10 | 100 | 80 | 100 | 100 | 50 | 60 | 100 | 100 | 100 | 70 | 10 | 0 | 100 | 0 | –
2 | CCSC(=O)Oc1c(C(=O)c2ccc(S(C)(=O)=O)c(OC3CCOC3)c2C)cnn1C (centres unmarked) [compound 217] | 20 | 98 | 100 | 100 | 0 | 0 | 60 | 80 | 60 | 80 | 70 | 90 | 95 | 95 | 98 | 80 | 40 | 0 | 100 | 0 | –
3 | CCSC(=O)Oc1c(C(=O)c2ccc(S(C)(=O)=O)c(C#N)c2C)cnn1C [compound 82] | 20 | 70 | 40 | 70 | 0 | 0 | 20 | 70 | 80 | 30 | 50 | 40 | 50 | 70 | 60 | 10 | 0 | 0 | 60 | 0 | –
4 | CCSC(=O)Oc1c(C(=O)c2ccc(S(C)(=O)=O)c(OCC3CCCO3)c2C)cnn1C (centres unmarked) [compound 211] | 40 | 98 | 70 | 70 | 0 | 0 | 60 | 90 | 70 | 60 | 20 | 50 | 100 | 98 | 70 | 50 | 0 | 20 | 90 | 0 | –
5 | CCSC(=O)Oc1c(C(=O)c2ccc(S(C)(=O)=O)c(OC)c2Cl)cnn1C [compound 214] | 90 | – | – | – | 0 | 20 | 100 | – | 90 | 100 | – | – | 90 | 100 | – | 100 | – | – | – | 0 | Growth inhibition rate (%) Soybean ([2]; 63 g/ha active ingredient): 100%; Growth inhibition rate (%) Crabgrass ([3]; 63 g/ha active ingredient): 95%; Growth inhibition rate (%) Barnyardgrass ([4]; 63 g/ha active ingredient): 98%; Growth inhibition rate (%) Velvetleaf ([8]; 63 g/ha active ingredient): 80%; Growth inhibition rate (%) Prickly sida ([11]; 63 g/ha active ingredient): 70%; Growth inhibition rate (%) Rice ([12]; 63 g/ha active ingredient): 90%; Growth inhibition rate (%) Greenfoxtail ([15]; 63 g/ha active ingredient): 90%; Growth inhibition rate (%) Wheat ([17]; 63 g/ha active ingredient): 0%; Growth inhibition rate (%) Corn ([18]; 63 g/ha active ingredient): 0%; Growth inhibition rate (%) redroot pigweed ([19]; 63 g/ha active ingredient): 100%
6 | CCSC(=O)Oc1c(C(=O)c2ccc(S(C)(=O)=O)c(OCCCOC)c2C)cnn1C [compound 218] | 30 | 95 | 100 | 100 | 0 | 0 | 90 | 90 | 50 | 90 | 70 | 98 | 100 | 80 | 95 | 80 | 10 | 0 | 100 | 0 | –
7 | CCn1ncc(C(=O)c2ccc(S(C)(=O)=O)c(OCCOC)c2C)c1OC(=O)SC(C)C [compound 208] | 50 | 100 | 100 | 95 | 0 | 0 | 100 | 95 | 30 | 100 | 40 | 80 | 100 | 100 | 100 | 98 | 0 | 0 | 100 | 0 | –
